Converted amounts (≈) assume the structure as drawn. Like-named read-outs stand apart in the source and are kept apart here. Where no end group is shown, it is not given here.
Tests used:
MDR E. coli ASEC 17 [1] = test: microbe, parasite or virus in culture; format: cell-based, Escherichia coli; conditions: microdilution, LB, 18 to 24 h, 37°C, three independent experiments
Procedure: (§1) Bacterial cells were cultured at 37°C in the appropriate culture media with shaking (180 rpm). Luria-Bertani broth (LB) (244620; BD Difco) was used for E. coli ATCC 25922, ASEC strains, and B. subtilis KCTC 2217. Nutrient broth (NB) (234000; BD Difco) was used for P. aeruginosa ATCC 27853, S. Typhimurium KCTC 1926, and A. baumannii KCTC 2508. Tryptic soy broth (TSB) (211825; BD Difco) was used for S. aureus ATCC 25923. Finally, brain heart infusion (BHI) (237500; BD Difco) was used for L. monocytogenes KCTC 3710. The antimicrobial activity of each peptide was determined using microdilution assays. To this end, 2-fold serial dilution series of each peptide (from 1 to 64 μM) were added to duplicate media with 10 mM sodium phosphate buffer (pH 7.4). Fifty microliters of the peptide and antibiotic solution was added to each well of a 96-well plate (32096, surface nontreatment; SPL Life Sciences). Then, 50 μL of 2 × 10^5 CFU mL^−1 of bacteria was added to each well, and the samples were incubated for 18 to 24 h without shaking at 37°C.

MDR E. coli ASEC 16 = test: microbe, parasite or virus in culture; format: cell-based, Escherichia coli; conditions: microdilution, LB, 18 to 24 h, 37°C, three independent experiments
Procedure: as §1

MDR E. coli ASEC 8 = test: microbe, parasite or virus in culture; format: cell-based, Escherichia coli; conditions: microdilution, LB, 18 to 24 h, 37°C, three independent experiments
Procedure: as §1

MDR E. coli ASEC 3 [2] = test: microbe, parasite or virus in culture; format: cell-based, Escherichia coli; conditions: microdilution, LB, 18 to 24 h, 37°C, three independent experiments
Procedure: as §1

MDR E. coli ASEC 2 = test: microbe, parasite or virus in culture; format: cell-based, Escherichia coli; conditions: microdilution, LB, 18 to 24 h, 37°C, three independent experiments
Procedure: as §1

MDR E. coli ASEC 15 = test: microbe, parasite or virus in culture; format: cell-based, Escherichia coli; conditions: microdilution, LB, 18 to 24 h, 37°C, three independent experiments
Procedure: as §1

MDR E. coli ASEC 12 [3] = test: microbe, parasite or virus in culture; format: cell-based, Escherichia coli; conditions: microdilution, LB, 18 to 24 h, 37°C, three independent experiments
Procedure: as §1

MDR E. coli ASEC 6 = test: microbe, parasite or virus in culture; format: cell-based, Escherichia coli; conditions: microdilution, LB, 18 to 24 h, 37°C, three independent experiments
Procedure: as §1

MDR E. coli ASEC 1 = test: microbe, parasite or virus in culture; format: cell-based, Escherichia coli; conditions: microdilution, LB, 18 to 24 h, 37°C, three independent experiments
Procedure: as §1

MDR E. coli ASEC 19 [4] = test: microbe, parasite or virus in culture; format: cell-based, Escherichia coli; conditions: microdilution, LB, 18 to 24 h, 37°C, three independent experiments
Procedure: as §1

MDR E. coli ASEC 18 = test: microbe, parasite or virus in culture; format: cell-based, Escherichia coli; conditions: microdilution, LB, 18 to 24 h, 37°C, three independent experiments
Procedure: as §1

E. coli ATCC 25922 = test: microbe, parasite or virus in culture; format: cell-based, Escherichia coli; conditions: LB, 2 × 10^5 CFU mL^−1, 18 to 24 h, 37°C, three independent experiments
Procedure: as §1

MDR E. coli ASEC 7 = test: microbe, parasite or virus in culture; format: cell-based, Escherichia coli; conditions: microdilution, LB, 18 to 24 h, 37°C, three independent experiments
Procedure: as §1

MDR E. coli ASEC 4 [5] = test: microbe, parasite or virus in culture; format: cell-based, Escherichia coli; conditions: microdilution, LB, 18 to 24 h, 37°C, three independent experiments
Procedure: as §1

MDR E. coli ASEC 11 [6] = test: microbe, parasite or virus in culture; format: cell-based, Escherichia coli; conditions: microdilution, LB, 18 to 24 h, 37°C, three independent experiments
Procedure: as §1

MDR E. coli ASEC 10 = test: microbe, parasite or virus in culture; format: cell-based, Escherichia coli; conditions: microdilution, LB, 18 to 24 h, 37°C, three independent experiments
Procedure: as §1

MDR E. coli ASEC 9 = test: microbe, parasite or virus in culture; format: cell-based, Escherichia coli; conditions: microdilution, LB, 18 to 24 h, 37°C, three independent experiments
Procedure: as §1

MDR E. coli ASEC 13 = test: microbe, parasite or virus in culture; format: cell-based, Escherichia coli; conditions: microdilution, LB, 18 to 24 h, 37°C, three independent experiments
Procedure: as §1

MDR E. coli ASEC 14 [7] = test: microbe, parasite or virus in culture; format: cell-based, Escherichia coli; conditions: microdilution, LB, 18 to 24 h, 37°C, three independent experiments
Procedure: as §1

MDR E. coli ASEC 5 = test: microbe, parasite or virus in culture; format: cell-based, Escherichia coli; conditions: microdilution, LB, 18 to 24 h, 37°C, three independent experiments
Procedure: as §1

MDR E. coli ASEC 12 [8] = system: MDR E. coli ASEC 12; design: method as in Asan hospital; key to susceptibility category: S: susceptible; R: resistant; I: intermediate; conditions: ref Asan hospital, cited from earlier work
MDR E. coli ASEC 14 [9] = system: MDR E. coli ASEC 14; design: method as in Asan hospital; key to susceptibility category: S: susceptible; R: resistant; I: intermediate; conditions: ref Asan hospital, cited from earlier work
MDR E. coli ASEC 3 [10] = system: MDR E. coli ASEC 3; design: method as in Asan hospital; key to susceptibility category: S: susceptible; R: resistant; I: intermediate; conditions: ref Asan hospital, cited from earlier work
MDR E. coli ASEC 11 [11] = system: MDR E. coli ASEC 11; design: method as in Asan hospital; key to susceptibility category: S: susceptible; R: resistant; I: intermediate; conditions: ref Asan hospital, cited from earlier work
MDR E. coli ASEC 4 [12] = system: MDR E. coli ASEC 4; design: method as in Asan hospital; key to susceptibility category: S: susceptible; R: resistant; I: intermediate; conditions: ref Asan hospital, cited from earlier work
MDR E. coli ASEC 19 [13] = system: MDR E. coli ASEC 19; design: method as in Asan hospital; key to susceptibility category: S: susceptible; R: resistant; I: intermediate; conditions: ref Asan hospital, cited from earlier work
MDR E. coli ASEC 17 [14] = system: MDR E. coli ASEC 17; design: method as in Asan hospital; key to susceptibility category: S: susceptible; R: resistant; I: intermediate; conditions: ref Asan hospital, cited from earlier work
[15] = Escherichia coli, read-out: MIC

In the case of `C[C@@H](O)[C@H]1C(=O)N2C(C(=O)O)=C(S[C@@H]3CN[C@H](C(=O)N(C)C)C3)[C@H](C)[C@H]12` [Meropenem], the MIC (MDR E. coli ASEC 17 [1]; [15]) is reported as under 1 µM, the MIC (MDR E. coli ASEC 16; [15]) is reported as under 1 µM and the MIC (MDR E. coli ASEC 8; [15]) is reported as under 1 µM. The MIC (MDR E. coli ASEC 3 [2]; [15]) was over 32 µM, the MIC (MDR E. coli ASEC 2; [15]) was over 32 µM and the MIC (MDR E. coli ASEC 15; [15]) was under 1 µM. For the same compound, the MIC (MDR E. coli ASEC 12 [3]; [15]) was 16 µM (≈ 6.14 µg/mL), the MIC (MDR E. coli ASEC 6; [15]) was 16 µM (≈ 6.14 µg/mL) and the MIC (MDR E. coli ASEC 1; [15]) was 1 µM (≈ 0.383 µg/mL). The MIC (MDR E. coli ASEC 19 [4]; [15]) was 8 µM (≈ 3.07 µg/mL), the MIC (MDR E. coli ASEC 18; [15]) was under 1 µM and the MIC (E. coli ATCC 25922; Escherichia coli, ATCC25922, microdilution, read-out: MIC) was under 1 µM. The MIC (MDR E. coli ASEC 7; [15]) was under 1 µM, the MIC (MDR E. coli ASEC 4 [5]; [15]) was over 32 µM and the MIC (MDR E. coli ASEC 11 [6]; [15]) was under 1 µM. The MIC (MDR E. coli ASEC 10; [15]) was under 1 µM, the MIC (MDR E. coli ASEC 9; [15]) was under 1 µM and the MIC (MDR E. coli ASEC 13; [15]) was 2 µM (≈ 0.767 µg/mL). The MIC (MDR E. coli ASEC 14 [7]; [15]) was 8 µM (≈ 3.07 µg/mL), the MIC (MDR E. coli ASEC 5; [15]) was 8 µM (≈ 3.07 µg/mL) and the MIC (MDR E. coli ASEC 12 [8]; ASEC 12 (AmpC), resistance information of clinical isolate) was over 8 µg/mL. The susceptibility category (MDR E. coli ASEC 12 [8]; ASEC 12) was “R”, the MIC (MDR E. coli ASEC 14 [9]; ASEC 14 (AmpC), resistance information of clinical isolate) was 8 µg/mL (≈ 20.9 µM) and the susceptibility category (MDR E. coli ASEC 14 [9]; ASEC 14) was “R”. The MIC (MDR E. coli ASEC 3 [10]; ASEC 3 (NDM-5), resistance information of clinical isolate) was over 8 µg/mL, the susceptibility category (MDR E. coli ASEC 3 [10]; ASEC 3) was “R” and the MIC (MDR E. coli ASEC 11 [11]; ASEC 11 (ESBL), resistance information of clinical isolate) was “<= 1 μg mL-1”. For the same compound, the susceptibility category (MDR E. coli ASEC 11 [11]; ASEC 11) was “S”, the MIC (MDR E. coli ASEC 4 [12]; ASEC 4 (ESBL), resistance information of clinical isolate) was over 8 µg/mL and the susceptibility category (MDR E. coli ASEC 4 [12]; ASEC 4) was “R”. The MIC (MDR E. coli ASEC 19 [13]; ASEC 19 (AmpC), resistance information of clinical isolate) was “<= 1 μg mL-1”, the susceptibility category (MDR E. coli ASEC 19 [13]; ASEC 19) was “S” and the MIC (MDR E. coli ASEC 17 [14]; ASEC 17 (AmpC), resistance information of clinical isolate) was “<= 1 μg mL-1”. For the same compound, the susceptibility category (MDR E. coli ASEC 17 [14]; ASEC 17) was “S”.

In the case of FKFLARTGKFL-NH2 [PN5], the MIC (MDR E. coli ASEC 17 [1]) is reported as 8 (10.61) μM, the MIC (MDR E. coli ASEC 16) is reported as 4 (5.30) μM and the MIC (MDR E. coli ASEC 8) is reported as 4 (5.30) μM. For the same compound, the MIC (MDR E. coli ASEC 3 [2]) was 8 (10.61) μM, the MIC (MDR E. coli ASEC 2) was 2 (2.65) μM and the MIC (MDR E. coli ASEC 15) was 16 (21.22) μM. For the same compound, the MIC (MDR E. coli ASEC 12 [3]) was 2 (2.65) μM, the MIC (MDR E. coli ASEC 6) was 4 (5.30) μM and the MIC (MDR E. coli ASEC 1) was 8 (10.61) μM. For the same compound, the MIC (MDR E. coli ASEC 19 [4]) was 8 (10.61) μM, the MIC (MDR E. coli ASEC 18) was 16 (21.22) μM and the MIC (E. coli ATCC 25922; microdilution) was 16 (21.22) μM. The MIC (MDR E. coli ASEC 7) was 8 (10.61) μM, the MIC (MDR E. coli ASEC 4 [5]) was 4 (5.30) μM and the MIC (MDR E. coli ASEC 11 [6]) was 2 (2.65) μM. For the same compound, the MIC (MDR E. coli ASEC 10) was 8 (10.61) μM, the MIC (MDR E. coli ASEC 9) was 16 (21.22) μM and the MIC (MDR E. coli ASEC 13) was 8 (10.61) μM. For the same compound, the MIC (MDR E. coli ASEC 14 [7]) was 2 (2.65) μM and the MIC (MDR E. coli ASEC 5) was 8 (10.61) μM.

— publication PMC9603901, “Therapeutic Potential of Antimicrobial Peptide PN5 against Multidrug-Resistant E. coli and Anti-Inflammatory Activity in a Septic Mouse Model” (Microbiology Spectrum, 2022)
